For this experiment, the target named is T1, human B-Raf (Homo sapiens, UniProt P15056).
T1 construct: Flag; GST; made in house; host or cells: Sf9 insect cells (B-Raf); E. coli (MEK1-GST)
The experiment is described as follows: B-Raf Kinase to MEK1 ELISA. Type of experiment: biochemical. Conditions: for IC50: median, cpd concentrations from 10 μM to 30 nM in half log dilutions, read-out: Median IC50; for inhibition at 10 µM: read-out: % Inhib./10 uM. The procedure, abridged: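 Read-out is a DELFIA europium signal from phospho-MEK1 (Ser217/221) antibody after capture of GST-MEK1 (50 nM final) on anti-GST plates. Phosphorylation comes from Sf9-expressed Flag/GST human B-Raf (~20 ng) with ATP/MgCl2, 60 min RT, pH 7.2 MOPS.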

From patent US20070219186A1, “Pyrazolo[1,5-A]pyrimidine derivatives and methods of use thereof” (priority 2006, published 2007) come the findings set out here.

Structures are written as SMILES. Where two headings read alike, the source gives them in different places.

T1 sequence (P15056 whole entry): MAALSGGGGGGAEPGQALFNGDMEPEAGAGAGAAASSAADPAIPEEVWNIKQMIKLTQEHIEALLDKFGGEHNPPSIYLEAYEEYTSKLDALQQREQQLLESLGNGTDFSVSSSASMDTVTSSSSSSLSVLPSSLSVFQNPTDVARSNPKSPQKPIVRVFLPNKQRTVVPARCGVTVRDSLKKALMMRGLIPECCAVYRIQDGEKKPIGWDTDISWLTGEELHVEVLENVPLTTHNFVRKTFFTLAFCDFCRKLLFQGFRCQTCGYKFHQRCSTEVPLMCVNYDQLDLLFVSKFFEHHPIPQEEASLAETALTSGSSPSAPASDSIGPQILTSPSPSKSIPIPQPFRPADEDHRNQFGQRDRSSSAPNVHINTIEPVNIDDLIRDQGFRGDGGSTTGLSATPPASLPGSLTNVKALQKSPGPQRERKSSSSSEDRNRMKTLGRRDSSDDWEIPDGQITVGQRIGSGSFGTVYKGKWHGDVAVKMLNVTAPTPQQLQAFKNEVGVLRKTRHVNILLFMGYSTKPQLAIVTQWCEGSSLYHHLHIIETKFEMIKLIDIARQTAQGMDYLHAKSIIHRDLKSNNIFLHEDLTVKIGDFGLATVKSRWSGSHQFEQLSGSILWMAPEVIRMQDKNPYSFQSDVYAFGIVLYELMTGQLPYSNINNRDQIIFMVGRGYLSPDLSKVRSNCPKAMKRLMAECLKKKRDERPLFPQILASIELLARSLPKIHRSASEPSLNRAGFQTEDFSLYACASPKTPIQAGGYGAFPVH

`CCOC(=O)c1cnn2c(-c3cccc(NC(=O)c4cc(C(C)(C)C)cc(C(C)(C)C)c4)c3)ccnc12` [Example 227, ethyl7-{3-[(3,5-di-tert-butylbenzoyl)amino]phenyl}pyrazolo[1,5-a]pyrimidine-3-carboxylate]: the IC50 was determined as 1600 nM and the inhibition at 10 µM is 54%. As to `CCOC(=O)c1cnn2c(-c3cccc(NC(=O)c4cc(Cl)ccc4Br)c3)ccnc12` [Example 228, ethyl7-{3-[(2-bromo-5-chlorobenzoyl)amino]phenyl}pyrazolo[1,5-a]pyrimidine-3-carboxylate], the concentration for half-maximal inhibition (IC50) is more than 10000 nM and the inhibition at 10 µM is 7%.

As to `COCC(=O)Nc1ccc(-c2cnn3c(-c4cccc(NC(=O)c5cccc(C(F)(F)F)c5)c4)ccnc23)cc1` [Example 229, N-[3-(3-{4-[(methoxyacetyl)amino]phenyl}pyrazolo[1,5-a]pyrimidin-7-yl)phenyl]-3-(trifluoromethyl)benzamide], the 50% inhibitory concentration (IC50) is 118 nM and the inhibition at 10 µM came to 83%.

Take `CN(C)CC(=O)Nc1ccc(-c2cnn3c(-c4cccc(NC(=O)c5cccc(C(F)(F)F)c5)c4)ccnc23)cc1` [Example 230, N-[3-(3-{4-[(N,N-dimethylglycyl)amino]phenyl}pyrazolo[1,5-a]pyrimidin-7-yl)phenyl]-3-(trifluoromethyl)benzamide]: the 50% inhibitory concentration (IC50) came to 49 nM. In addition, the inhibition at 10 µM (single point assay, 10 uM) is 93%. Take `COCCC(=O)Nc1ccc(-c2cnn3c(-c4cccc(NC(=O)c5cccc(C(F)(F)F)c5)c4)ccnc23)cc1` [Example 231, N-[3-(3-{4-[(3-methoxypropanoyl)amino]phenyl}pyrazolo[1,5-a]pyrimidin-7-yl)phenyl]-3-(trifluoromethyl)benzamide]: the IC50 worked out at 246 nM and the inhibition at 10 µM came out at 80%.

In the case of `O=C(Cc1c[nH]cn1)Nc1ccc(-c2cnn3c(-c4cccc(NC(=O)c5cccc(C(F)(F)F)c5)c4)ccnc23)cc1` [Example 232, N-[3-(3-{4-[(1H-imidazol-4-ylacetyl)amino]phenyl}pyrazolo[1,5-a]pyrimidin-7-yl)phenyl]-3-(trifluoromethyl)benzamide], the IC50 came to 174 nM and the inhibition at 10 µM turned out to be 99%. With `O=C(Cc1nnn[nH]1)Nc1ccc(-c2cnn3c(-c4cccc(NC(=O)c5cccc(C(F)(F)F)c5)c4)ccnc23)cc1` [Example 233, N-[3-(3-{4-[(1H-tetrazol-5-ylacetyl)amino]phenyl}pyrazolo[1,5-a]pyrimidin-7-yl)phenyl]-3-(trifluoromethyl)benzamide], the 50% inhibitory concentration (IC50) amounted to 1000 nM and the inhibition at 10 µM came to 96%. As to `CN(C)CCCC(=O)Nc1ccc(-c2cnn3c(-c4cccc(NC(=O)c5cccc(C(F)(F)F)c5)c4)ccnc23)cc1` [Example 234, N-{3-[3-(4-{[4-(dimethylamino)butanoyl]amino}phenyl)pyrazolo[1,5-a]pyrimidin-7-yl]phenyl}-3-(trifluoromethyl)benzamide], the IC50 is 19 nM and the inhibition at 10 µM stood at 96%. With `COCCOCC(=O)Nc1ccc(-c2cnn3c(-c4cccc(NC(=O)c5cccc(C(F)(F)F)c5)c4)ccnc23)cc1` [Example 235, N-{3-[3-(4-{[(2-methoxyethoxy)acetyl]amino}phenyl)pyrazolo[1,5-a]pyrimidin-7-yl]phenyl}-3-(trifluoromethyl)benzamide], the IC50 stood at 169 nM and the inhibition at 10 µM turned out to be 84%. With `Cn1cccc1C(=O)Nc1cccc(-c2ccnc3cc(-c4ccncc4)nn23)c1` [Example 236, 1-methyl-N-[3-(2-pyridin-4-ylpyrazolo[1,5-a]pyrimidin-7-yl)phenyl]-1H-pyrrole-2-carboxamide], the inhibition at 10 µM came out at 50%.

Take `O=C(Nc1cccc(-c2ccnc3cc(-c4ccncc4)nn23)c1)c1nccc2ccccc12` [Example 237, N-[3-(2-pyridin-4-ylpyrazolo[1,5-a]pyrimidin-7-yl)phenyl]isoquinoline-1-carboxamide]: the half-maximal inhibitory concentration (IC50) is more than 10000 nM and the inhibition at 10 µM was found to be 44%. The corresponding values for `Cn1c(C(=O)Nc2cccc(-c3ccnc4cc(-c5ccncc5)nn34)c2)cc2ccccc21` [Example 238, 1-methyl-N-[3-(2-pyridin-4-ylpyrazolo[1,5-a]pyrimidin-7-yl)phenyl]-1H-indole-2-carboxamide] are more than 10000 nM and 50%. The corresponding values for `O=C(Nc1cccc(-c2ccnc3cc(-c4ccncc4)nn23)c1)c1ccc(Br)s1` [Example 239, 5-bromo-N-[3-(2-pyridin-4-ylpyrazolo[1,5-a]pyrimidin-7-yl)phenyl]thiophene-2-carboxamide] are 200 nM and 86%. As for `CC(C)(C)CC(=O)Nc1cccc(-c2ccnc3cc(-c4ccncc4)nn23)c1` [Example 240, 3,3-dimethyl-N-[3-(2-pyridin-4-ylpyrazolo[1,5-a]pyrimidin-7-yl)phenyl]butanamide], the IC50 was more than 10000 nM and the inhibition at 10 µM came out at 10%. Consider `O=C(Nc1cccc(-c2ccnc3cc(-c4ccncc4)nn23)c1)c1cc(Cl)ccc1Br` [Example 241, 2-bromo-5-chloro-N-[3-(2-pyridin-4-ylpyrazolo[1,5-a]pyrimidin-7-yl)phenyl]benzamide], for which the 50% inhibitory concentration (IC50) was more than 10000 nM and the inhibition at 10 µM was 34%. Take `CCOC(=O)c1cnn2c(-c3cccc(NC(=O)c4cccc(C)c4)c3)ccnc12` [Example 242, ethyl 7-{3-[(3-methylbenzoyl)amino]phenyl}pyrazolo[1,5-a]pyrimidine-3-carboxylate]: the half-maximal inhibitory concentration (IC50) was more than 10000 nM and the inhibition at 10 µM came out at 20%.

As to `CCOC(=O)c1cnn2c(-c3cccc(NC(=O)c4cc(C(C)(C)C)nn4C)c3)ccnc12` [Example 243, ethyl7-(3-{[(3-tert-butyl-1-methyl-1H-pyrazol-5-yl)carbonyl]amino}phenyl)pyrazolo[1,5-a]pyrimidine-3-carboxylate], the IC50 is more than 10000 nM and the inhibition at 10 µM is 18%. The matching figures for `CCOC(=O)c1cnn2c(-c3cccc(NC(=O)Nc4nc5ccc(OC)cc5s4)c3)ccnc12` [Example 244, ethyl7-[3-({[(6-methoxy-1,3-benzothiazol-2-yl)amino]carbonyl}amino)phenyl]pyrazolo[1,5-a]pyrimidine-3-carboxylate]: more than 10000 nM and 24%. In the case of `CCOC(=O)c1cnn2c(-c3cccc(NC(=O)Nc4ccc5c(c4)OCO5)c3)ccnc12` [Example 245, ethyl7-(3-{[(1,3-benzodioxol-5-ylamino)carbonyl]amino}phenyl)pyrazolo[1,5-a]pyrimidine-3-carboxylate], the concentration for half-maximal inhibition (IC50) is more than 10000 nM and the inhibition at 10 µM was determined as 18%. The matching figures for `CCOC(=O)c1cnn2c(-c3cccc(NC(=O)Nc4nc5ccc(Cl)cc5s4)c3)ccnc12` [Example 246, ethyl7-[3-({[(6-chloro-1,3-benzothiazol-2-yl)amino]carbonyl}amino)phenyl]pyrazolo[1,5-a]pyrimidine-3-carboxylate]: more than 10000 nM and 34%.

Turning to `CCOC(=O)c1cnn2c(-c3cccc(NC(=O)Nc4cc(C)no4)c3)ccnc12` [Example 247, ethyl7-[3-({[(3-methylisoxazol-5-yl)amino]carbonyl}amino)phenyl]pyrazolo[1,5-a]pyrimidine-3-carboxylate], the IC50 is more than 10000 nM and the inhibition at 10 µM came to 15%. The corresponding values for `CCOC(=O)c1cnn2c(-c3cccc(NC(=O)Nc4cc(C)on4)c3)ccnc12` [Example 248, ethyl7-[3-({[(5-methylisoxazol-3-yl)amino]carbonyl}amino)phenyl]pyrazolo[1,5-a]pyrimidine-3-carboxylate] are more than 10000 nM and 10%. As to `O=C1CN(c2cc3nccc(-c4cccc(NC(=O)c5cccc(C(F)(F)F)c5)c4)n3n2)CCN1` [Example 249, N-{3-[2-(3-oxopiperazin-1-yl)pyrazolo[1,5-a]pyrimidin-7-yl]phenyl}-3-(trifluoromethyl)benzamide], the IC50 is 471 nM and the inhibition at 10 µM worked out at 76%. As to `O=C(Nc1cccc(-c2ccnc3cc(O)nn23)c1)c1cccc(C(F)(F)F)c1` [Example 250, N-[3-(2-hydroxypyrazolo[1,5-a]pyrimidin-7-yl)phenyl]-3-(trifluoromethyl)benzamide], the IC50 is more than 10000 nM and the inhibition at 10 µM stood at 16%. As to `O=C1CCN(c2cc3nccc(-c4cccc(NC(=O)c5cccc(C(F)(F)F)c5)c4)n3n2)CC1` [Example 251, N-{3-[2-(4-oxopiperidin-1-yl)pyrazolo[1,5-a]pyrimidin-7-yl]phenyl}-3-(trifluoromethyl)benzamide], the inhibition at 10 µM is 42%. As to `COCC(=O)Nc1cccc(-c2cnn3c(-c4cccc(NC(=O)c5cccc(C(F)(F)F)c5)c4)ccnc23)c1` [Example 252, N-[3-(3-{3-[(methoxyacetyl)amino]phenyl}pyrazolo[1,5-a]pyrimidin-7-yl)phenyl]-3-(trifluoromethyl)benzamide], the concentration for half-maximal inhibition (IC50) was 82 nM and the inhibition at 10 µM was 79%. The matching figures for `CN(C)CC(=O)Nc1cccc(-c2cnn3c(-c4cccc(NC(=O)c5cccc(C(F)(F)F)c5)c4)ccnc23)c1` [Example 253, N-[3-(3-{3-[(N,N-dimethylglycyl)amino]phenyl}pyrazolo[1,5-a]pyrimidin-7-yl)phenyl]-3-(trifluoromethyl)benzamide]: 40 nM and 97%. As to `COCCC(=O)Nc1cccc(-c2cnn3c(-c4cccc(NC(=O)c5cccc(C(F)(F)F)c5)c4)ccnc23)c1` [Example 254, N-[3-(3-{3-[(3-methoxypropanoyl)amino]phenyl}pyrazolo[1,5-a]pyrimidin-7-yl)phenyl]-3-(trifluoromethyl)benzamide], the IC50 worked out at 90 nM and the inhibition at 10 µM amounted to 82%.
